Patent US9572786B2, “Use of capsiate or dihydrocapsidate” (Catholic University Industry Academy Cooperation Foundation, priority 2007, dated 2017)

Columns and labels:
aortic ring = assay: Sprouting from the aortic ring; type: cell-based, Sprague Dawley rat; details: rat aortic ring in Matrigel; 6 days; evaluation 0 to 5 points
Procedure: The degree of sprouting from the aortic ring caused by treatment with VEGF was investigated as follows in order to identify the effect of capsiate or dihydrocapsiate on VEGF-induced angiogenesis.
The aortic ring was prepared from the artery of Sprague Dawley rat (6-8 weeks old). The aortic ring was placed on a 48-well plate coated with 120 μL of Matrigel and 50 μL of Matrigel was further added. Then, 200 μL of a medium (human endothelial serum-free medium, Invitrogen, USA) containing capsiate or dihydrocapsiate and VEGF or a medium containing only VEGF was added. 6 days later, the cells were fixed, stained using Diff-Quick and subjected to evaluation (0 to 5 points) in a double blinded manner.

COX-2 = assay: UV-induced COX-2 expression, Western blotting; type: cell-based, human; details: HaCaT cells; 10, 25, 50 μM; UV 100 J/m^2; 16 hours
Procedure: In order to investigate the effect of capsiate on UV-induced COX-2 expression in human keratinocytes, 5×10^5 HaCaT cells were placed on a 60 mm Petri dish and cultured for 24 hours in DMEM containing 10% FBS.
Subsequently, the cells were cultured for 24 hours in DMEM containing 1% FBS until starvation. Then, after treating with capsiate for 30 minutes at different concentrations (10 μM, 25 μM, 50 μM), followed by washing 3 times with PBS, UV was irradiated at an intensity of 100 J/m^2 in order to induce the expression of COX-2. Immediately after the UV irradiation, the cells were washed again with PBS and further cultured for 16 hours in DMEM containing 1% FBS, which was treated with capsiate at the same concentration as in the pre-treatment.
Western blotting was carried out as follows in order to evaluate the degree of COX-2 expression in the cells. […]
In order to investigate the effect of dihydrocapsiate on UV-induced COX-2 expression in human keratinocytes, the degree of COX-2 expression was evaluated in the same manner as Example 2-1, except for using dihydrocapsiate instead of capsiate.

HUVEC [1] = assay: [14C] sucrose permeability assay; type: cell-based, human; details: 5, 10, 25 μM, VEGF 50 ng/mL for 1 hour
Procedure: [^14C] sucrose permeability assay was carried out in order to identify the effect of capsiate or dihydrocapsiate on VEGF-induced endothelial permeability. In brief, HUVEC were placed on a transwell filter (Corning Costar). At confluence, the cells were cultured in M199 medium containing 1% FBS for 3 hours. After treating with capsiate or dihydrocapsiate at different concentrations (5 μM, 10 μM, 25 μM) for 30 minutes, the cells were treated with VEGF (50 ng/mL) for 1 hour. [^14C] sucrose (0.8 μCi/mL, 50 μL) was added to the upper compartment. 30 minutes later, the irradiation level was measured at the lower compartment using a scintillation counter (Wallac, PerkinElmer).

C57/BL6 mouse = assay: Mouse Matrigel plug assay; type: in vivo; details: 60 μg in 0.6 mL Matrigel with 100 ng VEGF, subcutaneous injection, 6 days
Procedure: Mouse Matrigel plug was carried out in order to investigate the effect of capsiate or dihydrocapsiate on VEGF-induced angiogenesis in vivo [Min K J et al., 2007, Blood, 15: 1495-1502].
0.6 mL of Matrigel containing 60 μg of capsiate or dihydrocapsiate, 100 ng of VEGF and 10 units of heparin or Matrigel containing 100 ng of VEGF only was administered to C57/BL6 mouse (Orient, Korea) through subcutaneous injection. 6 days later, the produced Matrigel plug was taken out.

HaCaT cells = assay: UV-induced intracellular ROS production (DCFH-DA fluorescence microscopy); type: cell-based, human; details: 50 μM, UV 100 J/m^2, vs UV only control group
Procedure: 5×10^5 HaCaT cells (acquired from Professor N. Fusenig of the German Cancer Research Center), which are a human keratinocyte cell line, were placed on a 60 mm Petri dish (1×10^6 cells for a 100 mm Petri dish) and cultured for 24 hours in Dulbecco's modified Eagle's medium (DMEM) containing 10% fetal bovine serum (FBS).
After treating with 50 μM capsiate for 30 minutes, the cells were washed 3 times with phosphate buffered saline (PBS). In order to induce the production of ROS, UV was irradiated at an intensity of 100 J/m^2, using a UV lamp (FSX 24 T12/UVB/HO, Pansol™ USA). Immediately after the UV irradiation, the cells were washed again with PBS and further cultured for 2 hours in DMEM containing 1% FBS, which was treated with capsiate at the same concentration as in the pre-treatment. After treating with 25 μM 2,7-dichlorofliuorescin diacetate (DCFH-DA) in Hank's balanced salt solution (HBSS, BioWhittaker Cambrex, USA) for 30 minutes, the cells were washed 3 times with PBS.
The treated cells were observed under a fluorescence microscope (Carl Zeiss, USA) in order to measure the ROS produced by the UV irradiation. […]
Inhibition effect on the production of intracellular ROS induced by UV was measured in the same manner as Example 1-1, except for using dihydrocapsiate instead of capsiate.

HUVEC [2] = assay: Chemotactic mobility, Transwell assay; type: cell-based, human; details: 1, 5, 10, 25 μM; 4 hours
Procedure: Transwell assay (Corning Costar, USA) was carried out in order to investigate the effect of capsiate or dihydrocapsiate on chemotactic mobility of HUVEC [Lee O H et al., 1999, Biochem. Biophys. Res. Commun. 264; 743-750].
In brief, the bottom side of a filter was coated with 10 μg of gelatin and M199 medium containing VEGF and 1% FBS was added to the lower well. HUVEC were prepared by treating with trypsin and diluting in M199 medium containing 1% FBS to a concentration of 1×10^6 cells/mL. Capsiate or dihydrocapsiate at different concentrations (1 μM, 5 μM, 10 μM, 25 μM) were pre-treated at room temperature for 30 minutes. The cells in […] of medium were added to the upper well and cultured at 37° C. for 4 hours. After fixation, followed by staining with hematoxylin and eosin, the cells remaining on the top surface of the filter without moving were removed. The cells that migrated to the bottom side of the filter were observed and counted using an optical microscope (×200).

Row | SMILES | VEGF-promoted sprouting from the aortic ring (aortic ring) | UV-induced COX-2 expression (COX-2) | VEGF-increased permeability of endothelial cells (HUVEC [1]) | VEGF-induced angiogenesis in Matrigel plug (colour) (C57/BL6 mouse) | production of intracellular ROS induced by UV (HaCaT cells) | VEGF-increased chemotactic mobility of HUVEC (HUVEC [2])
1 | COc1cc(COC(=O)CCCCCCC(C)C)ccc1O [dihydrocapsiate] | inhibited the sprouting in a concentration-dependent manner | decrease of the increased COX-2 expression in a concentration-dependent manner | decreased in a concentration-dependent manner | angiogenesis hardly occurred | decreased remarkably | decreased in a concentration-dependent manner
2 | COc1cc(COC(=O)CCCC/C=C/C(C)C)ccc1O [capsiate] | inhibited the sprouting in a concentration-dependent manner | decreased in a concentration-dependent manner | decreased in a concentration-dependent manner | angiogenesis hardly occurred | decreased remarkably | decreased in a concentration-dependent manner
